The text below walks through data of patent publication US20070078262A1, “Thiomorpholino steroid compounds, the use thereof for the preparation of meiosis-regulating medicaments and method for the preparation thereof” (SCHERING AKTIENGESELLSCHAFT, priority 2003, published 2007).

Values joined by “and” are separate entries in the source; they are usually repeats but may differ in a detail not shown here. Identical values can stand only once.

In series [1] the test system is Cumulus Enclosed Oocytes (CEOs). As to the kind of experiment: Cumulus enclosed oocyte assay (meiosis activation in Hx-medium). In kind it is cell-based, mice (C57BL/6J×DBA/2J F1). Particulars: for Meiosis Activation [%]: in the presence of Hx in CEOs. The text has this:
Activation of MI arrested oocytes can be assessed by the disappearance of the germinal vesicle (GV). The disappearance of the GV, called germinal vesicle breakdown (GVB) is followed by the extrusion of the first polar body (PB) (C. Grøndahl, J. L. Ottesen, M. Lessi, P. Faarup, A. Murray, F C Grønvald, C. Hegele-Hartung, I. Ahnfelt-Rønne, “Meiosis-activating sterol promotes resumption of meiosis in mouse oocytes cultured in vitro in contrast to related oxysterols”, Biol. Reprod., 58, 1297-1302 (1998); C. Hegele-Hartung, J. Kuhnke, M. Lessi, C. Grøndahl, J. Ottesen, H. M. Beier, S. Eisner, U. Eichenlaub-Ritter, “Nuclear and cytoplasmic maturation of mouse oocytes after treatment with synthetic meiosis-activating sterol in vitro”, Biol. Reprod., 61, 1362-1372 (1999)).
Cumulus Enclosed Oocytes (CEOs) were obtained from immature female mice (C57BL/6J×DBA/2J F1) weighing 13-16 grams, that were kept under controlled temperature (20-22° C.), light (lights on 06:00-18:00) and relative humidity (50-70%). The mice received an intra-peritoneal injection of 0.2 ml gonadotropins containing 20 IU FSH. 48 hours later the animals were killed by cervical dislocation. The ovaries were dissected out and the oocytes were isolated in Hx-medium (see below) under a stereomicroscope by manual rupture of the follicles using a pair of 27-gauge needles. Cumulus enclosed oocytes displaying an intact germinal vesicle were placed in α-minimum essential medium (α-MEM without ribonucleosides supplemented with 8 mg/ml Human Serum Albumin (HSA), 0.23 mM pyruvate, 2 mM glutamine, 100 IU/ml penicillin and 100 μg/ml streptomycin). To maintain the oocytes in the germinal vesicle stage this medium was supplemented with 3 mM hypoxanthine, designated as Hx-medium.
The CEOs (35-45 CEOs in 0.4 ml Hx-medium) were cultured in a humidified atmosphere of 5% CO2 in air for 24 hours at 37° C. One control well (identical medium with no addition of test compound) was always cultured simultaneously with test wells.
By the end of the culture period the number of CEOs with germical vesicle (GV), germinal vesicle breakdown (GVB) and polar bodies (PB), respectively, were counted. The % GVB, defined as the percentage of CEOs undergoing GVB per total number of CEOs in that well, was calculated as: % GVB=(number of GVB+number of PB/total number of CEOs)×100
The % PB was defined as the percentage of CEOs displaying one extruded polar body per total number of CEOs in that well.
For each compound two experiments were performed and the results compared to Hx-medium as a control and FF-MAS at a concentration of 10 μM.

Series [2] concerns mouse oocytes. As to the kind of experiment: In vitro fertilization (IVF) after in vitro maturation of oocytes. Particulars: in vitro maturation without hypoxanthine, then IVF; n=18. In kind it is cell-based, mice (C57BL/6J×DBA/2J F1). On the procedure: Changes in the subsequent IVF are therefore probably due to effects of the test compounds on cytoplasmic maturation.
Immature female mice (C57BL/6J×DBA/2J F1) in the age of 21-24 days were used as oocyte donors. Animals were given an i.p. injection of 10 IU pregnant mare serum gonadotropin (PMSG) to induce follicular growth. Animals were killed by cervical dislocation 48 hours later and the ovaries were dissected out. As sperm donors eight week old male mice (C57BL/6J×DBA/2J F1) were used.
Oocytes were isolated from the ovaries by manual rupture of the follicles using a pair of 27-gauge needles. Spherical naked oocytes (NkO) and CEOs displaying an intact GV were selected and placed in α-minimum essential medium (α-MEM without ribonucleosides, Gibco BRL, Gaithersburg; Cat. No. 22561) supplemented with 8 mg/ml human serum albumin (HSA), 0.23 mM pyruvate, 2 mM glutamine, 100 IU/ml penicillin and 100 μg/ml streptomycin.
The oocytes were rinsed three times in culture medium without oil overlay in 4-well multidishes containing 0.4 ml of the respective oocyte culture medium.
The oocyte culture medium was supplemented with 6.4% Fetal Bovine Serum (FBS). Solutions of novel compound IA and of the two compounds in comparison as mentioned were prepared from a stock solution containing 1 mg/ml of compound dissolved in absolute ethanol. The control group was cultured with a corresponding amount of ethanol.
After a culture time of 18-19 hours oocytes were further processed for in vitro fertilization. […] Oocytes were briefly washed without any test compound and subsequently transferred to the insemination dishes prepared in advance, which contained approximately 600.000 capacitated sperm cells per 500 μl IVF medium (obtained from the epididymides of male mice). The dishes were then incubated under defined gas conditions (5% CO2 in air) at 37° C. in a modified α-MEM IVF medium supplemented with 8 mg/ml HSA, 0.23 mM pyruvate, 100 IU penicillin/ml and 100 μg streptomycin/ml as described above for oocyte maturation.
Examination of the oocytes was carried out 22-24 hours after insemination in order to check fertilization and to record the number of pronucleus (PN) and 2-cell stage embryos. The fertilization rate was determined as the number of oocytes that had reached the PN or 2-cell embryo stage, relative to the total number inseminated.

In series [3] the test system is in vitro fertilized ova (2-cell embryos). As to the kind of experiment: Retransfer study / fertility trial (in vitro fertilized 2-cell embryos transferred into foster mothers). It counts as in vivo, mice. Particulars: for No. of Implantation Spots: Odds / No. of Viable Fetuses: Odds: successes divided by failures; for No. of Implantation Spots: Failures: transferred ova minus implantation spots; for No. of Viable Fetuses: Failures: transferred ova minus viable fetuses; for Odds Ratio for comparison to FF-MAS, No. of Implantation Spots / Odds Ratio for comparison to FF-MAS, No. of Viable Fetuses: versus FF-MAS 10 μM; for shows significant improvement of odds versus vehicle control, number of implantation spots: 95% confidence interval of odds ratio, all doses tested. On the procedure:
In vitro fertilization was performed as described above for the IVF experiment.
One day before the retransfer female recipient mice (foster mothers) in pro-estrus cycle state were mated with vasectomized males in order to trigger pseudogestation. One day later a vaginal check was performed. Animals with a positive, sperm-free vaginal plug (successful mating) entered the study. This day was designated day 0 of gestation (=day 0 after the sterile copulation, day 0 p.c.). […] 2-cell embryos were transferred into the right tube of the foster mothers on day 0 after the sterile copulation under anesthesia. The contra-lateral tube remained unused (check for pseudogestation). The foster mothers were sacrified on day 19 of gestation. The fetuses were removed and examined. The ovaries and uteri were removed immediately to record the number of implantation sites, viable and dead fetuses and resorptions. Apparently non-pregnant uteri were placed in a 10% aqueous solution of ammonium sulfide for about 10 min to stain possible implantation sites in the endometrium. The viable fetuses were individually weighed and their sex determined by inspection of their gonads.
In a fertility trial 269 mice were randomized into 6 groups and implanted with 7-10 in vitro fertilized ova. The in vitro fertilization took place in the presence of vehicle (group 1) or of a substance (groups 2 to 6).
The fertility raising effect of the substances in comparison to the vehicle control was of main interest. Moreover, an improvement compared to the substance FF-MAS was also investigated.
Variables of primary interest are the number of implantation spots and the number of viable fetuses.
The data for implantation spots as well as for viable fetuses have to be considered to have binary character, i.e. it can be expressed in rates or in a number of successes and failures with respect to the number of transferred ova. Therefore, methods as outlined by D. Collett: “Modelling Binary Data”, 2nd edition, Chapman & Hall/CRC, Boca Raton, constitute appropriate approaches to the data analysis.
The odds ratio of one group as compared to the other is defined as: odds ratio (group 1, group 2)=or1,2=odds (group 1)/odds (group 2)
where the odds of a group can be estimated by the number of successes divided by the number of failures in that group.
To reach statements about the significance of any findings, 95% confidence-intervals for the odds ratios are computed as: [ exp(log(or1,2)[…]1.96·se(log(or1,2))); exp(log(or1,2)+1.96·se(log(or1,2)))]
wherein se(log(or1,2)) is the standard error of the log odds ratio (see D. Collett (2003) for the corresponding formula).
As a basis for the computation of odds ratios, the number of successes (i.e., the number of implantation spots of number of viable fetuses) and failures (i.e., the number of transferred ova minus the number of implantation spots or number of viable fetuses) are computed for all groups.

Series [4] relates to follicle culture system. As to the kind of experiment: Follicle culture system (induction of maturation). In kind it is cell-based.
Series [5] has as its system rat oocytes (CEO and DO). As to conditions: micromolar concentrations; CEO and DO cultured in vitro; cited from earlier work.
The nature of series [6]: Solubility in water (measured by turbimetry).
Where [7] appears, read: 10 μM, Table 1, two experiments per compound, FF-MAS run in parallel.

On to `C[C@H](CN1CCSCC1)[C@H]1CCC2=C3CC[C@H]4C(C)(C)[C@@H](O)CC[C@]4(C)[C@H]3CC[C@@]21C` [Compound IB, (20S)-20-[(thiomorpholin-4-yl)methyl]-4,4-dimethyl-5α-pregna-8(14)-en-3β-ol], for which the “Meiosis Activation [%]” value in series [1] (setting [7]) is on record as 15%.

In the case of `C[C@H](CN1CCSCC1)[C@H]1CC=C2C3=C(CC[C@@]21C)[C@@]1(C)CC[C@H](O)C[C@@H]1CC3` [Compound IC, (20S)-20-[(thiomorpholin-4-yl)methyl]-5α-pregna-8,14-dien-3β-ol], in series [1] (setting [7]), the “Meiosis Activation [%]” value is 64% and 69%.

In the case of `C[C@H](CN1CCSCC1)[C@H]1CC[C@H]2C3=CC=C4C(C)(C)[C@@H](O)CC[C@]4(C)[C@H]3CC[C@]12C` [Compound ID, (20S)-20-[(thiomorpholin-4-yl)methyl]-4,4-dimethyl-pregna-5,7-dien-3β-ol], in series [1] (setting [7]), the “Meiosis Activation [%]” value is 89% and 58%.

For `C[C@H](CN1CCSCC1)[C@H]1CCC2=C3CC[C@H]4C[C@@H](O)CC[C@]4(C)[C@H]3CC[C@@]21C` [Compound IE, (20S)20-[(thiomorpholin-4-yl)methyl]-5α-pregna-8(14)-en-3β-ol], the “Meiosis Activation [%]” value in series [1] (1 μM, Table 2) is 44%; in series [1] (3 μM, Table 2), 24%; in series [1] (setting [7]), 96% and 80%; in series [1] (10 μM, Table 2) it was 60%. Moreover, the “efficiency of meiosis activation among the compounds tested” value in series [1] (CEOs in the presence of Hx) is listed as “the most efficient compound tested”.

Take `C[C@H](CN1CCCCC1)[C@H]1CC=C2C3=C(CC[C@@]21C)[C@@]1(C)CC[C@H](O)C(C)(C)[C@@H]1CC3` [Compound No. 2, (20S)-20-[(piperidin-1-yl)methyl]-4,4-dimethyl-5α-pregna-8,14-dien-3β-ol]: the “Meiosis Activation [%]” value in series [1] (10 μM, Table 2) turned out to be 48%. The “fertilization rates of mouse oocytes compared to vehicle control (FIG. 3)” value in series [2] is given as “higher fertilization rates”. Moreover, in series [3] (1 μM), the “No. of Implantation Spots: Success” value is 97; the “No. of Viable Fetuses: Success” value came to 32; the “Odds Ratio for comparison to vehicle control, No. of Implantation Spots” value is 1.09; the “Odds Ratio for comparison to vehicle control, No. of Viable Fetuses” value is listed as 0.98. In series [3] (1 μM), the “No. of Implantation Spots: Odds” value was 0.27, the “No. of Viable Fetuses: Odds” value is on record as 0.08, the “No. of Implantation Spots: Failures” value is on record as 357 and the “No. of Viable Fetuses: Failures” value worked out at 422. Also, in series [3] (1 μM), the “Odds Ratio for comparison to FF-MAS, No. of Implantation Spots” value came out at 0.91 and the “Odds Ratio for comparison to FF-MAS, No. of Viable Fetuses” value stood at 0.66. In addition, in series [3] (10 μM), the “No. of Implantation Spots: Success” value was 90; the “No. of Viable Fetuses: Success” value was 37; the “Odds Ratio for comparison to vehicle control, No. of Implantation Spots” value worked out at 1.08; the “Odds Ratio for comparison to vehicle control, No. of Viable Fetuses” value came out at 1.24. Further, in series [3] (10 μM), the “No. of Implantation Spots: Odds” value came to 0.27, the “No. of Viable Fetuses: Odds” value is reported as 0.10, the “No. of Implantation Spots: Failures” value is listed as 332 and the “No. of Viable Fetuses: Failures” value stood at 385. Moreover, in series [3] (10 μM), the “Odds Ratio for comparison to FF-MAS, No. of Implantation Spots” value came to 0.91 and the “Odds Ratio for comparison to FF-MAS, No. of Viable Fetuses” value stood at 0.83. In series [3], the “shows significant improvement of odds versus vehicle control, number of implantation spots” value is recorded as “Neither”.

`CC(C)=CCC[C@@H](C)[C@H]1CC=C2C3=C(CC[C@@]21C)[C@@]1(C)CC[C@H](O)C(C)(C)[C@@H]1CC3` [FF-MAS, 4,4-dimethyl-5α-cholesta-8,14,24-trien-3β-ol]: in series [1] (10 μM, Table 2), the “Meiosis Activation [%]” value is reported as 24%. In series [2], the “fertilization rates of mouse oocytes compared to vehicle control (FIG. 3)” value is reported as “higher fertilization rates”. In addition, in series [3] (10 μM), the “No. of Implantation Spots: Success” value is listed as 100; the “No. of Viable Fetuses: Success” value was found to be 45; the “Odds Ratio for comparison to vehicle control, No. of Implantation Spots” value was determined as 1.19; the “Odds Ratio for comparison to vehicle control, No. of Viable Fetuses” value is on record as 1.49. Also, in series [3] (10 μM), the “No. of Implantation Spots: Odds” value is 0.30, the “No. of Viable Fetuses: Odds” value was 0.12, the “No. of Implantation Spots: Failures” value amounted to 335 and the “No. of Viable Fetuses: Failures” value was found to be 390. The “shows significant improvement of odds versus vehicle control, number of implantation spots” value in series [3] is “Neither”. In addition, the “implantation rate per transferred 2-cell embryos (FIG. 4)” value in series [3] (FF-MAS 10 μM, compound IA 1 μM and 10 μM) is on record as “higher numbers”. In series [4], the “induction of maturation / activation of meiosis in a follicle culture system” value was “not able to induce maturation”. The “resumption of meiosis in rat oocytes arrested by IBMX” value in series [5] is on record as “able to induce resumption of meiosis in a dose-dependent manner”. Further, the solubility (in general, the dissolved amount per volume that the medium holds) in series [6] was less than 0.1 µg/mL.
